Patent US6812258B2, “Cancer treatment composition and method using natural plant essential oils” (Ecosmart Technologies, Inc., priority 1998, dated 2004)
Read-outs that look alike come from different tables or passages of the source.

Key:
[1] = tested on: Human Epithelial Breast Cancer Cells (MCF-7); experiment: Antiproliferative effect, 3H-thymidine incorporation in MCF-7 cells with and without estrogen; type: cell-based; conditions: for activity at 50 µg/mL: Homo sapiens, MCF7, 24 h
Description: (§1) MCF-7 cells were cultured in growth medium supplemented with 10% fetal bovine serum (FBS). At 85% confluence, cells were sub-cultured in 5% FBS serum stripped medium, phenol red free for 24 hours prior to the treatment of the test chemical. After 24 hours of treatment cell proliferation was measured using ^3H-thymidine incorporation. These test chemicals were tested in the presence and absence of estrogen to address if they have anti-estrogenic activity in addition to their antiproliferative effect. The study was done in triplicate and a control was used with solvent only. Control received solvent only at <0.1% ethanol. Estrogen was tested at 1 nM (=0.27 ng E2/ml). Exemplary plant essential oil compounds were tested at 50 ug/ml.
as §1, with “(0.27” for “(=0.27”, “Plant” for “Exemplary plant”

[2] = tested on: MCF-7 cells; experiment: Dose-response effect on E2-induced cell growth, viable cell count (trypan blue, haemocytometer); type: cell-based, human
Description: MCF-7 cells were cultured in growth medium supplemented with 10% fetal bovine serum (FBS). At 85% confluence, cells were sub-cultured in 6 well petri-dishes and supplemented with 5% FBS serum stripped medium, phenol red free for 24 hours prior to the treatment of different concentrations of the test chemicals. After 5 days of treatment cells were trypsinized, collected using Eppendorf microcentrifuge. The cell pellets were resuspended in 1% trypan blue and three aliquots (10 ul each) of the viable cell suspension were counted using a haemocytometer assay. Each sample was then counted three times and the data shown is the average of three counts. These test chemicals were tested in the presence of 10 nM estrogen (=2.7 ng estrogen/ml). Two wells per test concentration were used. This experiment was repeated two times. Control received solvent only at <0.1% ethanol.

[3] = Table 1, test chemical 50 ug/ml + estrogen 1 nM, 24 hours treatment, read-out: 3H-thymidine incorporation % of control value
[4] = Table 1, test chemical 50 ug/ml alone, 24 hours treatment, read-out: 3H-thymidine incorporation % of control value
[5] = Table 1, test chemical 50 ug/ml + estrogen 1 nM, 24 hours treatment
[6] = Table 1, test chemical 50 ug/ml alone, 24 hours treatment
[7] = Table 2, test chemical 50 ug/ml + estrogen 1 nM, 24 hours treatment
[8] = Table 2, test chemical 50 ug/ml alone, 24 hours treatment
[9] = test chemical 50 μg/ml + E2 10 nM, Day 5
[10] = read-out: 3H-thymidine incorporation % of control value, Table 1, test chemical 50 ug/ml + estrogen 1 nM, 24 hours treatment
[11] = read-out: 3H-thymidine incorporation % of control value, Table 1, test chemical 50 ug/ml alone, 24 hours treatment
[12] = test chemical 1 μg/ml + E2 10 nM, Day 5
[13] = test chemical 5 μg/ml + E2 10 nM, Day 5
[14] = test chemical 10 μg/ml + E2 10 nM, Day 5
[15] = test chemical 20 μg/ml + E2 10 nM, Day 5
[16] = Table 2, test chemical 50 ug/ml + estrogen 1 nM, 24 hours treatment, read-out: 3H-thymidine incorporation % of control value
[17] = Table 2, test chemical 50 ug/ml alone, 24 hours treatment, read-out: 3H-thymidine incorporation % of control value
[18] = Table 1, estrogen alone 1 nM, 24 hours treatment
[19] = Table 2, estrogen alone 1 nM, 24 hours treatment

Cc1ccc(C(C)C)cc1 [p-cymene]
activity at 50 µg/mL [1, 3]: 152% | activity at 50 µg/mL [1, 4]: 101% | 3H-thymidine incorporation % of estrogen value [1, 5]: 96% | 3H-thymidine incorporation dpm/ug protein [1, 5]: 632.0 dpm/ug protein | 3H-thymidine incorporation dpm/ug protein [1, 6]: 419.0 dpm/ug protein

C=C(C)[C@H]1CC=C(C)CC1 [R-(+)-Limonene]
3H-thymidine incorporation % of control value [1, 7]: 119.3% | 3H-thymidine incorporation % of estrogen value [1, 7]: 79% | 3H-thymidine incorporation dpm/μg protein [1, 7]: 522.6 dpm/μg protein | 3H-thymidine incorporation % of control value [1, 8]: 89.7% | 3H-thymidine incorporation dpm/μg protein [1, 8]: 393.1 dpm/μg protein

CC12CCC(CC1)C(C)(C)O2 [Eucalyptol]
activity at 50 µg/mL [1, 3]: 137% | activity at 50 µg/mL [1, 4]: 96% | 3H-thymidine incorporation % of estrogen value [1, 5]: 86% | 3H-thymidine incorporation dpm/ug protein [1, 5]: 568.0 dpm/ug protein | 3H-thymidine incorporation dpm/ug protein [1, 6]: 398.0 dpm/ug protein

CC1=CC[C@H](C(C)C)C=C1 [α-phellandrene]
3H-thymidine incorporation % of control value [1, 7]: 145.0% | 3H-thymidine incorporation % of estrogen value [1, 7]: 96% | 3H-thymidine incorporation dpm/μg protein [1, 7]: 635.3 dpm/μg protein | 3H-thymidine incorporation % of control value [1, 8]: 79.5% | 3H-thymidine incorporation dpm/μg protein [1, 8]: 348.4 dpm/μg protein

OCc1ccccc1 [benzyl alcohol]
% anti-E2 [2, 9]: 35.40% | Cell count average [2, 9]: 21.0 × (10^4)/ml | Cell count well #1 [2, 9]: 24 × (10^4)/ml | Cell count well #2 [2, 9]: 18 × (10^4)/ml

OC/C=C/c1ccccc1 [Cinnamic alcohol]
activity at 50 µg/mL [1, 3]: 53% | activity at 50 µg/mL [1, 4]: 4% | 3H-thymidine incorporation % of estrogen value [1, 5]: 34% | 3H-thymidine incorporation dpm/ug protein [1, 5]: 220.8 dpm/ug protein | 3H-thymidine incorporation dpm/ug protein [1, 6]: 18.5 dpm/ug protein

COC(=O)c1ccccc1O [Methyl salicylate]
activity at 50 µg/mL [1, 3]: 168% | activity at 50 µg/mL [1, 4]: 107% | 3H-thymidine incorporation % of estrogen value [1, 5]: 106% | 3H-thymidine incorporation dpm/ug protein [1, 5]: 693.9 dpm/ug protein | 3H-thymidine incorporation dpm/ug protein [1, 6]: 444.0 dpm/ug protein

C=CCc1ccc(O)c(OC)c1 [Eugenol]
activity at 50 µg/mL [1, 10]: 70% | activity at 50 µg/mL [1, 11]: 52% | 3H-thymidine incorporation % of estrogen value [1, 5]: 44% | 3H-thymidine incorporation dpm/ug protein [1, 5]: 289.1 dpm/ug protein | 3H-thymidine incorporation dpm/ug protein [1, 6]: 215.6 dpm/ug protein | protection against the E2-induced abnormal growth in cancer breast cells ([2]; 1 ug/ml, summary of Table 3): 35% | % anti-E2 [2, 12]: 25.00% | Cell count average [2, 12]: 24.0 × (10^4)/ml | Cell count well #1 [2, 12]: 19 × (10^4)/ml | Cell count well #2 [2, 12]: 29 × (10^4)/ml | % anti-E2 [2, 13]: 41.70% | Cell count average [2, 13]: 19.0 × (10^4)/ml | Cell count well #1 [2, 13]: 19 × (10^4)/ml | Cell count well #2 [2, 13]: 19 × (10^4)/ml | % anti-E2 [2, 14]: 50.00% | Cell count average [2, 14]: 16.0 × (10^4)/ml | Cell count well #1 [2, 14]: 18 × (10^4)/ml | Cell count well #2 [2, 14]: 14 × (10^4)/ml | % anti-E2 [2, 15]: 60.40% | Cell count average [2, 15]: 13.0 × (10^4)/ml | Cell count well #1 [2, 15]: 10 × (10^4)/ml | Cell count well #2 [2, 15]: 16 × (10^4)/ml

Cc1ccc(C(C)C)cc1O [Carvacrol]
activity at 50 µg/mL [1, 10]: 43% | activity at 50 µg/mL [1, 11]: 50% | 3H-thymidine incorporation % of estrogen value [1, 5]: 28% | 3H-thymidine incorporation dpm/ug protein [1, 5]: 181.7 dpm/ug protein | 3H-thymidine incorporation dpm/ug protein [1, 6]: 207.2 dpm/ug protein

CC1=CCC(C(C)(C)O)CC1 (stereo not drawn) [α-terpineol]
activity at 50 µg/mL [1, 3]: 164% | activity at 50 µg/mL [1, 4]: 116% | activity at 50 µg/mL [1, 16]: 145% | activity at 50 µg/mL [1, 17]: 112% | 3H-thymidine incorporation % of estrogen value [1, 5]: 103% | 3H-thymidine incorporation dpm/ug protein [1, 5]: 679.1 dpm/ug protein | 3H-thymidine incorporation dpm/ug protein [1, 6]: 480.5 dpm/ug protein | 3H-thymidine incorporation % of estrogen value [1, 7]: 96% | 3H-thymidine incorporation dpm/μg protein [1, 7]: 636.7 dpm/μg protein | 3H-thymidine incorporation dpm/μg protein [1, 8]: 490.7 dpm/μg protein

Estrogen [reference compound]
3H-thymidine incorporation % of estrogen value ([1]; Table 1, estrogen alone 1 nM (reference)): 100% | 3H-thymidine incorporation % of control value [1, 18]: 158% | 3H-thymidine incorporation dpm/ug protein [1, 18]: 658.6 dpm/ug protein | 3H-thymidine incorporation % of estrogen value ([1]; Table 2, estrogen alone 1 nM (reference)): 100% | 3H-thymidine incorporation % of control value [1, 19]: 151.6% | 3H-thymidine incorporation dpm/μg protein [1, 19]: 664.2 dpm/μg protein | Cell count % of control ([2]; E2 10 nM alone, Day 5): 145% | Cell count average ([2]; E2 10 nM alone, Day 5): 32.0 × (10^4)/ml | Cell count well #1 ([2]; E2 10 nM alone, Day 5): 36 × (10^4)/ml | Cell count well #2 ([2]; E2 10 nM alone, Day 5): 28 × (10^4)/ml

COc1ccccc1O [Guaiacol]
activity at 50 µg/mL [1, 16]: 180% | activity at 50 µg/mL [1, 17]: 163% | 3H-thymidine incorporation % of estrogen value [1, 7]: 119% | 3H-thymidine incorporation dpm/μg protein [1, 7]: 788.8 dpm/μg protein | 3H-thymidine incorporation dpm/μg protein [1, 8]: 712.3 dpm/μg protein

O=C/C=C\c1ccccc1 [cinnamic aldehyde]
control against the E2-induced abnormal growth in cancer breast cells ([2]; 50 ug/ml, summary of Table 3): approximately 96% | % anti-E2 [2, 9]: 96.90% | Cell count average [2, 9]: 01.0 × (10^4)/ml | Cell count well #1 [2, 9]: 00 × (10^4)/ml | Cell count well #2 [2, 9]: 02 × (10^4)/ml

Cc1ccc(C(C)C)c(O)c1 [Thymol]
activity at 50 µg/mL [1, 3]: 26% | activity at 50 µg/mL [1, 4]: 23% | 3H-thymidine incorporation % of estrogen value [1, 5]: 16% | 3H-thymidine incorporation dpm/ug protein [1, 5]: 108.2 dpm/ug protein | 3H-thymidine incorporation dpm/ug protein [1, 6]: 97.3 dpm/ug protein | protection against the E2-induced abnormal growth in cancer breast cells ([2]; 5 ug/ml, summary of Table 3): 40% | % anti-E2 [2, 12]: 00.00% | Cell count average [2, 12]: 32.0 × (10^4)/ml | Cell count well #1 [2, 12]: 32 × (10^4)/ml | Cell count well #2 [2, 12]: 32 × (10^4)/ml | % anti-E2 [2, 13]: 40.60% | Cell count average [2, 13]: 19.0 × (10^4)/ml | Cell count well #1 [2, 13]: 20 × (10^4)/ml | Cell count well #2 [2, 13]: 18 × (10^4)/ml | % anti-E2 [2, 14]: 62.50% | Cell count average [2, 14]: 12.0 × (10^4)/ml | Cell count well #1 [2, 14]: 12 × (10^4)/ml | Cell count well #2 [2, 14]: 12 × (10^4)/ml | % anti-E2 [2, 15]: 62.50% | Cell count average [2, 15]: 12.0 × (10^4)/ml | Cell count well #1 [2, 15]: 10 × (10^4)/ml | Cell count well #2 [2, 15]: 14 × (10^4)/ml

C/C=C/c1ccc(OC)cc1 [Trans-anethole]
activity at 50 µg/mL [1, 3]: 142% | activity at 50 µg/mL [1, 4]: 105% | 3H-thymidine incorporation % of estrogen value [1, 5]: 89% | 3H-thymidine incorporation dpm/ug protein [1, 5]: 589.8 dpm/ug protein | 3H-thymidine incorporation dpm/ug protein [1, 6]: 434.9 dpm/ug protein

CC(C)=CCCC(C)CC=O (stereo not drawn) [Citronellal]
activity at 50 µg/mL [1, 3]: 69% | activity at 50 µg/mL [1, 4]: 20% | 3H-thymidine incorporation % of estrogen value [1, 5]: 43% | 3H-thymidine incorporation dpm/ug protein [1, 5]: 284.0 dpm/ug protein | 3H-thymidine incorporation dpm/ug protein [1, 6]: 85.2 dpm/ug protein
